The source of these data is article PMC11727334, “A self-immolative Kdn-glycoside substrate enables high-throughput screening for inhibitors of Kdnases” (Glycobiology, 2024).

One assay concerns the target T1, AfK (Aspergillus fumigatus, UniProt Q4WQS0).
T1 construct: AfK was expressed and purified as described by Telford et al; made in house
As to the kind of experiment: HTS assay of AfK activity using Kdn glycoside 4 (384-well, stop solution). The class given is biochemical. Here is the method:
We next miniaturized our assay for use in a 384-well microplate format by optimizing the quantity of detergent and checking for fluorescent signal stability (Figs 2A,S6 and S7 Supporting Information). In each well, we added a solution of buffer containing AfK (50 nM) and then added a library compound using a pin tool. We included both detergent (0.2% (v/v) Tween-20) and BSA (0.01% BSA) to reduce false positives arising from aggregation prone compounds ([Feng et al. 2007]). We then equilibrated the mixture prior to the addition of substrate 4, and the resultant solution was incubated for 1 h after which stop solution was added. To ensure cyclization was complete, the mixture was allowed to react for 1 h prior to measuring the fluorescence. Candidate hits identified in this primary screen were cherry picked and delivered into a gold plate that was used to confirm hits.
To each well in a 384-well microplate, enzyme (20 μL of a 50 nM stock solution) in reaction buffer (100 mM NaOAc, 0.2% Tween-20, 0.01% BSA, pH 4) was added to a library compound (200 nL of 20 μM TargetMol, 10 μM Chembridge), and this mixture was incubated at rt for 1 h. Then, substrate 4 (20 μL of a 50 μM stock) was added and the resultant mixture was incubated at rt for an additional 1 hr. Following addition of stop solution (40 μL of 1 M aqueous K2CO3, pH ≈ 12) to the mixture the plate was incubated for 1 h at rt. Next, the fluorescence for each well was measured (BioTek Neo 2) using an excitation and an emission wavelength of 360 and 450 nm, respectively. The collected data was analyzed using Prism 7.0. We used the known mechanism-based inactivator 2,3-diF-Kdn (3) as the positive control ([Watts et al. 2006]; [Khazaei et al. 2015]). That is, using 2,3-diFKdn at a concentration of 30 μM, following a 10 min incubation, gives a background signal that equates to >90% inhibition.

The target of assay [1] is T2, Kdnase produced by A. fumigatus (AfK) (Aspergillus fumigatus, UniProt Q4WQS0).
T2 construct: AfK was expressed and purified as described by Telford et al; made in house
Put plainly: Inhibition assay of recombinant AfK using 4MU-Kdn as substrate. The assay is classed as biochemical. The text has this: We purchase fresh commercial material for compounds 13 and 14 and performed inhibition assays using recombinant AfK (Methods, Fig. S8, Supporting Information). We determined IC50 values in quadruplicate using 4MU-Kdn as the substrate ([Yeung et al. 2013]). […] We submitted both compounds to a pan-assay interference compounds (PAINS) filter, a compilation of chemical substructures known to show promiscuous biological activities ([Baell and Nissink 2018]). […] We performed standard inhibition assays as described earlier using inhibitor 13 and these recombinant enzymes. […] We also tested inhibitor 13 with the sialidase MvNA, the closest structural homologue to AfK, that is known to cleave a multitude of substrates including Kdn glycosides ([Telford et al. 2011]).
Each 200 μM reaction mixture was incubated at rt for 2 min prior to the addition of purified sialidase. Inhibitor was added to the reaction mixture and allowed to incubate at rt between 0–60 min in 100 mM sodium acetate buffer pH 4.0 and 0.01% BSA prior to the addition of substrate. The kinetic parameters were determined from initial rate measurements using a substrate concentration of Km/4. The progress of the reaction was continuously monitored for 15 min using a fluorescence spectrophotometer (BioTek Neo 2) and excitation and emission wavelengths of 360 and 450 nm, respectively.

Where two headings read alike, the source gives them in different places.

T1 sequence (Q4WQS0 21-406): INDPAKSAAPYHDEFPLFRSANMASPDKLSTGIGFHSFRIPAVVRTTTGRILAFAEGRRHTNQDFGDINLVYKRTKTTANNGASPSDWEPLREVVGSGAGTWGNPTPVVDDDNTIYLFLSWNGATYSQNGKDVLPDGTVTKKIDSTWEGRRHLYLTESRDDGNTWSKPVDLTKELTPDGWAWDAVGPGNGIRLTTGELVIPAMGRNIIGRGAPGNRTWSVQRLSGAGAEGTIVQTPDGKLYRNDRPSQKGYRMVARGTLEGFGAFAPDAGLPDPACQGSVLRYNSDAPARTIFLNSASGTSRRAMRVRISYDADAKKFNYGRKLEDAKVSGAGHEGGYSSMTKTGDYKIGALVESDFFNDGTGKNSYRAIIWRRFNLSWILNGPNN
T2 sequence (Q4WQS0 21-406): as above

For `CC(C)(C)c1cc(C=C(C#N)C#N)cc(C(C)(C)C)c1O` [compound 14, Tyrphostin A9, reference compound], the “inhibitory activity verified in repeat assay of HTS hits” value at AfK (TargetMol library pilot screen) is recorded as “inhibit AfK”. Further, in assay [1], the half-inhibitory concentration (IC50) was determined as 65.8 ± 1.7 µM and the Ki was 58.4 µM. Besides, the “mode of inhibition (Lineweaver-Burk plots)” value in assay [1] (AfK) is reported as “competitive inhibitors”. The Hill result in assay [1] (Table S2, values from this work) is listed as “–0.92”.

On to `O=C(O)/C=C/c1ccc(O)c(O)c1` [caffeic acid, reference compound], for which the IC50 in assay [1] (Fig. S10, read-out: IC50) is ~500 µM.

Regarding `O=C(O)[C@]1(F)O[C@@H]([C@H](O)[C@H](O)CO)[C@H](O)[C@@H](O)[C@H]1F` [compound 3, 2,3-diF-α-Kdn], on AfK (30 μM, 10 min incubation), the inhibition at 30 µM is > 90%. On AfK (30 μM, reacted with AfK for 10 min, read-out: fluorescent signal relative to the uninhibited sample), the activity at 30 µM is < 10%. Besides, the “Hill Slope” value on AfK (following incubation (10 min)) was -1.2. On AfK (following incubation (10 min), read-out: apparent IC50), the IC50 was found to be 3.1 µM.
